Molecular target: human PCSK9 (Homo sapiens, UniProt Q8NBP7)
Experiment: PCSK9 ligand binding TR-FRET assay (interference with binding of human PCSK9 to human LDLR)
Conditions: for Max % inhibition: PCSK9 FRET assay, efficacy (Amax), 100% = 1 uM unlabeled human PCSK9, 0% = DMSO; for IC50: TR-FRET, human PCSK9 Alexa Fluor 647 / human LDLR extracellular domain-Europium Kryptate, read-out: PCSK9 FRET Assay IC50
In short: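 Threefold compound dilutions were pre-incubated 30 min with PCSK9, after which 4 nM Europium Kryptate-tagged human LDLR ectodomain was added for a further 2 h.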

Sequence of human PCSK9 (Q8NBP7 153-692): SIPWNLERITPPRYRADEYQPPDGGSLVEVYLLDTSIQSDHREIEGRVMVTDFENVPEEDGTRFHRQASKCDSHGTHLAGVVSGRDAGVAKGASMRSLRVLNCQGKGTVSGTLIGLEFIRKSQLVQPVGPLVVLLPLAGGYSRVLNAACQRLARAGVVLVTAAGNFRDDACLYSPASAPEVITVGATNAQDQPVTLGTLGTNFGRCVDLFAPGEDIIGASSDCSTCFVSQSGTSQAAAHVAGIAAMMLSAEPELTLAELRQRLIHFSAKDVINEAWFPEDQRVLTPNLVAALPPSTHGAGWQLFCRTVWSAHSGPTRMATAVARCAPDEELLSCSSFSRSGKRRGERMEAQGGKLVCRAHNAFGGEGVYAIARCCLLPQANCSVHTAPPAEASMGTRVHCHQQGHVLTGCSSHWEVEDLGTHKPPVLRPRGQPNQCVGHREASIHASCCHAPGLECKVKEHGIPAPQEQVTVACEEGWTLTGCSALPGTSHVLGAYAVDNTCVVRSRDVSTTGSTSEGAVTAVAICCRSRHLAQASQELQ
Sequence of human PCSK9 (Q8NBP7 31-152 partner limits assumed): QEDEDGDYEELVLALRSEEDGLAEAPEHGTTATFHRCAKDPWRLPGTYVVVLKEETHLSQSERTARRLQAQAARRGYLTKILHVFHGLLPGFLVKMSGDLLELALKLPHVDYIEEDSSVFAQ

| SMILES | Max % inhibition [%] | IC50 [nM] |
| --- | --- | --- |
| CC[C@H]1C(=O)N[C@@H](CO)C(=O)N(C)[C@@H](Cc2ccc(Cl)cc2)CC(=O)NC[C@H](C)N(C)C(=O)[C@H](Cc2ccccc2)CC(=O)N1Cc1ccc(Cl)cc1Oc1ccc(-c2cnc(CN(C)C)n2C)cc1 [Compound 207, (2S,5S,8S,13S,16R)-16-benzyl-1-(4-chloro-2-(4-(2-((dimethylamino)methyl)-1-methyl-1H-imidazol-5-yl)phenoxy)benzyl)-8-(4-chlorobenzyl)-2-ethyl-5-(hydroxymethyl)-7,13,14-trimethyl-1,4,7,11,14-pentaazacyclooctadecane-3,6,10,15,18-pentaone] | 102.49 | 2.2 |
| COC[C@@H]1NC(=O)[C@H](C)N(Cc2c(F)cc(F)cc2Oc2ccc(-c3cnc(CN(C)C)n3C)cc2)C(=O)C[C@@H](Cc2ccccc2)C(=O)N(C)[C@H]2CCCC[C@@H]2NC(=O)C[C@H](Cc2ccc(Cl)cc2)N(C)C1=O [Compound 208, (4S,7S,10S,14R,16aS,20aS)-14-benzyl-4-(4-chlorobenzyl)-11-(2-(4-(2-((dimethylamino)methyl)-1-methyl-1H-imidazol-5-yl)phenoxy)-4,6-difluorobenzyl)-7-(methoxymethyl)-5,10,16-trimethylhexadecahydrobenzo[l][1,4,7,11,14]pentaazacyclooctadecine-2,6,9,12,15(3H)-pentaone] | 87.45 | 2.7 |
| CC[C@H]1C(=O)N[C@@H](COC)C(=O)N(C)[C@@H](Cc2ccc(Cl)c(F)c2)CC(=O)NC[C@H](C)N(C)C(=O)[C@H](Cc2ccccc2)CC(=O)N1Cc1ccc(Cl)cc1Oc1ccc(-c2cnc(CN(C)C)n2C)cc1 [Compound 209, (2S,5S,8S,13S,16R)-16-benzyl-1-(4-chloro-2-(4-(2-((dimethylamino)methyl)-1-methyl-1H-imidazol-5-yl)phenoxy)benzyl)-8-(4-chloro-3-fluorobenzyl)-2-ethyl-5-(methoxymethyl)-7,13,14-trimethyl-1,4,7,11,14-pentaazacyclooctadecane-3,6,10,15,18-pentaone] | 98.10 | 4.9 |
| COC[C@@H]1NC(=O)[C@H](C)N(Cc2cccnc2Oc2ccc(-c3cnc(CN(C)C)n3C)cc2)C(=O)C[C@@H](Cc2ccccc2)C(=O)N(C)[C@@H](C)CNC(=O)C[C@H](Cc2ccc(Cl)cc2)N(C)C1=O [Compound 210, (2S,5S,8S,13S,16R)-16-benzyl-8-(4-chlorobenzyl)-1-((2-(4-(2-((dimethylamino)methyl)-1-methyl-1H-imidazol-5-yl)phenoxy)pyridin-3-yl)methyl)-5-(methoxymethyl)-2,7,13,14-tetramethyl-1,4,7,11,14-pentaazacyclooctadecane-3,6,10,15,18-pentaone] | 91.38 | 14.7 |
| COC[C@@H]1NC(=O)[C@H](CCS(C)(=O)=O)N(Cc2ccc(Cl)cc2Oc2ccc(-c3cnc(CN(C)C)n3C)cc2)C(=O)C[C@@H](Cc2ccccc2)C(=O)N(C)[C@@H](C)CNC(=O)C[C@H](Cc2ccc(Cl)cc2)N(C)C1=O [Compound 211, (2S,5S,8S,13S,16R)-16-benzyl-1-(4-chloro-2-(4-(2-((dimethylamino)methyl)-1-methyl-1H-imidazol-5-yl)phenoxy)benzyl)-8-(4-chlorobenzyl)-5-(methoxymethyl)-7,13,14-trimethyl-2-(2-(methylsulfonyl)ethyl)-1,4,7,11,14-pentaazacyclooctadecane-3,6,10,15,18-pentaone] | 102.01 | 3.9 |
| COC[C@@H]1NC(=O)[C@H](C)N(Cc2ccc(Cl)cc2Oc2ccc(-c3cnc4c(c3)CN(C(=O)[C@@H]3CCNC3)CC4)cc2)C(=O)C[C@@H](Cc2ccccc2)C(=O)N(C)[C@@H](C)CNC(=O)C[C@H](Cc2ccc(Cl)cc2)N(C)C1=O [Compound 212, (2S,5S,8S,13S,16R)-16-benzyl-1-(4-chloro-2-(4-(6-((R)-pyrrolidine-3-carbonyl)-5,6,7,8-tetrahydro-1,6-naphthyridin-3-yl)phenoxy)benzyl)-8-(4-chlorobenzyl)-5-(methoxymethyl)-2,7,13,14-tetramethyl-1,4,7,11,14-pentaazacyclooctadecane-3,6,10,15,18-pentaone] | 71.82 | 5.4 |
| C[C@H]1CNC(=O)C[C@H](Cc2ccc(Cl)cc2)N(C)C(=O)[C@H](CC(=O)O)NC(=O)[C@H](C)N(Cc2ccc(Cl)cc2Oc2ccc(-c3cnc(CN(C)C)n3C)cc2)C(=O)C[C@@H](Cc2ccccc2)C(=O)N1C [Compound 213, 2-((2S,5S,8S,13S,16R)-16-benzyl-1-(4-chloro-2-(4-(2-((dimethylamino)methyl)-1-methyl-1H-imidazol-5-yl)phenoxy)benzyl)-8-(4-chlorobenzyl)-2,7,13,14-tetramethyl-3,6,10,15,18-pentaoxo-1,4,7,11,14-pentaazacyclooctadecan-5-yl)acetic acid] | 91.51 | 3.5 |
| COC[C@@H]1NC(=O)[C@H](C)N(Cc2ncccc2Oc2ccc(-c3cnc(CN(C)C)n3C)cc2)C(=O)C[C@@H](Cc2ccccc2)C(=O)N(C)[C@@H](C)CNC(=O)C[C@H](Cc2ccc(Cl)cc2)N(C)C1=O [Compound 214, (2S,5S,8S,13S,16R)-16-benzyl-8-(4-chlorobenzyl)-1-((3-(4-(2-((dimethylamino)methyl)-1-methyl-1H-imidazol-5-yl)phenoxy)pyridin-2-yl)methyl)-5-(methoxymethyl)-2,7,13,14-tetramethyl-1,4,7,11,14-pentaazacyclooctadecane-3,6,10,15,18-pentaone] | 97.43 | 33.2 |
| COC[C@@H]1NC(=O)[C@H](C)N(Cc2ccc(Cl)cc2Oc2ccc(-c3cnc(CN(C)C)n3C)cc2)C(=O)C[C@@H](C2CC2)C(=O)N(C)[C@@H](C)CNC(=O)C[C@H](Cc2ccc(Cl)cc2)N(C)C1=O [Compound 215, (2S,5S,8S,13S)-1-(4-chloro-2-(4-(2-((dimethylamino)methyl)-1-methyl-1H-imidazol-5-yl)phenoxy)benzyl)-8-(4-chlorobenzyl)-16-cyclopropyl-5-(methoxymethyl)-2,7,13,14-tetramethyl-1,4,7,11,14-pentaazacyclooctadecane-3,6,10,15,18-pentaone] | 95.08 | 11 |
| COC[C@@H]1NC(=O)[C@H](C)N(Cc2ccc(Cl)cc2Oc2ccc(-c3cnc(CN4CCCC4)n3C)cc2)C(=O)C[C@@H](Cc2ccccc2)C(=O)N(C)[C@@H](CCCCNC(C)=O)CNC(=O)C[C@H](Cc2ccc(Cl)cc2)N(C)C1=O.O=C(O)C(F)(F)F [Compound 217, N-(4-((2S,5S,8S,13S,16R)-16-benzyl-1-(4-chloro-2-(4-(1-methyl-2-(pyrrolidin-1-ylmethyl)-1H-imidazol-5-yl)phenoxy)benzyl)-8-(4-chlorobenzyl)-5-(methoxymethyl)-2,7,14-trimethyl-3,6,10,15,18-pentaoxo-1,4,7,11,14-pentaazacyclooctadecan-13-yl)butyl)acetamide trifluoroacetate] | 95.74 | 0.7 |

Source: patent US20230089867A1, “CYCLIC PENTAMER COMPOUNDS AS PROPROTEIN CONVERTASE SUBTILISIN/KEXIN TYPE 9 (PCSK9) INHIBITORS FOR THE TREATMENT OF METABOLIC DISORDER” (Novartis AG, priority 2018, published 2023)
